From BindingDB's records for patent US20240158413 (Soter Biopharma, 2024) come the findings set out here.

This experiment has as its target T1, Gonadotropin-releasing hormone receptor (Homo sapiens, UniProt P30968).
T1 sequence (P30968 whole entry): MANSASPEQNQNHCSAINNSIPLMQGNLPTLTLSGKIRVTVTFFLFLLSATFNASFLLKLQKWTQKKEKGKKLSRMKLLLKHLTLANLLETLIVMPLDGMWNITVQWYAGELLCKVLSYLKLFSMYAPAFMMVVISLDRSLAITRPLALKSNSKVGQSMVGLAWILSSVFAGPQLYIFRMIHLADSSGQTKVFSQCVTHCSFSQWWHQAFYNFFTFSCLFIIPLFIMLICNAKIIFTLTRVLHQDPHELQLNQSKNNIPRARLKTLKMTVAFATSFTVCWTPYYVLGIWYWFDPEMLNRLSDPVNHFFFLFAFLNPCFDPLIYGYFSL
Put plainly: Inhibitory Activity Assay. The protocol:
GnRH/HEK293 (human embryonic kidney cell 293) cultured cells in the logarithmic growth phase were washed with DPBS (Dulbecco's phosphate buffered saline) buffer, and an appropriate amount of 0.05% EDTA (ethylenediaminetetraacetic acid)-trypsin was added. The cells were placed in a carbon dioxide incubator at 37° C. for digestion for 1-2 minutes, and then removed from the incubator. A medium was added to the cells to terminate the digestion. Cells were dispersed by repeated pipetting and harvested by centrifugation. The cells were seeded into a 384-well Poly-Lysine-Coated. Cell Plate at a density of 20,000 cells per well. […] The fluorescence signal was read. Then 10 μL of the reference compound as an agonist was added, and the fluorescent signal was read. […] The fluorescent signal was read. Then 10 μL of agonist with a concentration of 6×EC50 was added to the cell plate and the fluorescent signal was read.IC50 of the compound to inhibit the calcium flow of gonadotropin-releasing hormone receptor, i.e., the drug concentration when the Ca2+ flow was inhibited by half in the cells stably expressing the GnRH receptor, was calculated. The IC50 of the drug was calculated by GraphPad Prism 5.0 software.

What is called IC50 is the concentration needed to halve the response being measured. Low readings indicate inhibition by little substance, high ones a need for much substance.

`Cc1c(F)ccc2c1COc1cc(C3C(=O)Nc4csc(C(=O)O)c4C3=O)c(F)cc1OCCCO2` (configuration not stated) [US20240158413, Compound 1] showed an IC50 of 3.2 nM.

Turning to `O=C(O)c1scc2c1C(=O)C(c1cc3c(cc1F)OCC1(CC1)COc1ccc(F)c(F)c1CO3)C(=O)N2` (configuration not stated) [US20240158413, Compound 2], half-maximal inhibition (IC50) was put at 9.2 nM.
